According to ChEMBL document CHEMBL4804284:
The source made the active and inactive calls. No cut-off for these calls is given here.

How the values were obtained:
[1] = target: Serine/threonine-protein kinase Nek11 (Homo sapiens) (UniProt Q8NG66); experiment: Inhibition of DNA-tagged human NEK11 assessed as percent of control at 50000 nM by qPCR analysis relative to control; design: scale not given: the % may be the effect or the level left
[2] = target: RAC-gamma serine/threonine-protein kinase (Homo sapiens) (UniProt Q9Y243); experiment: Inhibition of DNA-tagged human AKT3 assessed as percent of control at 50000 nM by qPCR analysis relative to control; design: scale not given: the % may be the effect or the level left
[3] = target: Mitogen-activated protein kinase kinase kinase 20 (Homo sapiens) (UniProt Q9NYL2); experiment: Inhibition of DNA-tagged human ZAK assessed as percent of control at 50000 nM by qPCR analysis relative to control; design: scale not given: the % may be the effect or the level left
[4] = target: Cyclin-dependent kinase 2 homolog (Plasmodium falciparum (isolate K1 / Thailand)) (UniProt Q07785); experiment: Inhibition of DNA-tagged Plasmodium falciparum PFPK5 assessed as percent of control at 50000 nM by qPCR analysis relative to control; design: scale not given: the % may be the effect or the level left
[5] = target: Tyrosine-protein kinase receptor Tie-1 (Homo sapiens) (UniProt P35590); experiment: Inhibition of DNA-tagged human TIE1 assessed as percent of control at 50000 nM by qPCR analysis relative to control; design: scale not given: the % may be the effect or the level left
[6] = target: Mast/stem cell growth factor receptor Kit (Homo sapiens) (UniProt P10721); experiment: Inhibition of DNA-tagged human KIT assessed as percent of control at 50000 nM by qPCR analysis relative to control; design: scale not given: the % may be the effect or the level left
[7] = target: Cyclin-dependent kinase 8 (Homo sapiens) (UniProt P49336); experiment: Inhibition of DNA-tagged human CDK8 assessed as percent of control at 50000 nM by qPCR analysis relative to control; design: scale not given: the % may be the effect or the level left
[8] = target: Myosin light chain kinase 2, skeletal/cardiac muscle (Homo sapiens) (UniProt Q9H1R3); experiment: Inhibition of DNA-tagged human MYLK2 assessed as percent of control at 50000 nM by qPCR analysis relative to control; design: scale not given: the % may be the effect or the level left
[9] = target: Mitogen-activated protein kinase kinase kinase 5 (Homo sapiens) (UniProt Q99683); experiment: Inhibition of DNA-tagged human ASK1 assessed as percent of control at 50000 nM by qPCR analysis relative to control; design: scale not given: the % may be the effect or the level left
[10] = target: Serine/threonine-protein kinase Sgk3 (Homo sapiens) (UniProt Q96BR1); experiment: Inhibition of DNA-tagged human SGK3 assessed as percent of control at 50000 nM by qPCR analysis relative to control; design: scale not given: the % may be the effect or the level left
[11] = system: U-266; experiment: Cytotoxicity against human U-266 cells at 0.1-100 uM assessed as decrease in cell viability relative to control; assay type: functional, cell-based
[12] = system: Mast/stem cell growth factor receptor Kit (Homo sapiens), P10721 [A829P]; experiment: Inhibition of DNA-tagged human KIT A829P mutant assessed as percent of control at 50000 nM by qPCR analysis relative to control; design: scale not given: the % may be the effect or the level left
[13] = target: Serine/threonine-protein kinase 24 (Homo sapiens) (UniProt Q9Y6E0); experiment: Inhibition of DNA-tagged human MST3 assessed as percent of control at 50000 nM by qPCR analysis relative to control; design: scale not given: the % may be the effect or the level left
[14] = target: Casein kinase II subunit alpha (Homo sapiens) (UniProt P68400); experiment: Inhibition of DNA-tagged human CSNK2A1 assessed as percent of control at 50000 nM by qPCR analysis relative to control; design: scale not given: the % may be the effect or the level left
[15] = target: SRSF protein kinase 2 (Homo sapiens) (UniProt P78362); experiment: Inhibition of DNA-tagged human SRPK2 assessed as percent of control at 50000 nM by qPCR analysis relative to control; design: scale not given: the % may be the effect or the level left
[16] = target: Peripheral plasma membrane protein CASK (Homo sapiens) (UniProt O14936); experiment: Inhibition of DNA-tagged human CASK assessed as percent of control at 50000 nM by qPCR analysis relative to control; design: scale not given: the % may be the effect or the level left
[17] = target: Serine/threonine-protein kinase Nek9 (Homo sapiens) (UniProt Q8TD19); experiment: Inhibition of DNA-tagged human NEK9 assessed as percent of control at 50000 nM by qPCR analysis relative to control; design: scale not given: the % may be the effect or the level left
[18] = system: Tyrosine-protein kinase ABL1 (Homo sapiens), P00519 [F317I]; experiment: Inhibition of DNA-tagged non-phosphorylated human ABL1 F317I mutant assessed as percent of control at 50000 nM by qPCR analysis relative to control; design: scale not given: the % may be the effect or the level left
[19] = target: Phosphorylase b kinase gamma catalytic chain, skeletal muscle/heart isoform (Homo sapiens) (UniProt Q16816); experiment: Inhibition of DNA-tagged human PHKG1 assessed as percent of control at 50000 nM by qPCR analysis relative to control; design: scale not given: the % may be the effect or the level left
[20] = target: Transient receptor potential cation channel subfamily M member 6 (Homo sapiens) (UniProt Q9BX84); experiment: Inhibition of DNA-tagged human TRPM6 assessed as percent of control at 50000 nM by qPCR analysis relative to control; design: scale not given: the % may be the effect or the level left
[21] = target: LIM domain kinase 2 (Homo sapiens) (UniProt P53671); experiment: Inhibition of DNA-tagged human LIMK2 assessed as percent of control at 50000 nM by qPCR analysis relative to control; design: scale not given: the % may be the effect or the level left
[22] = target: Mitogen-activated protein kinase 14 (Homo sapiens) (UniProt Q16539); experiment: Inhibition of DNA-tagged human p38-alpha assessed as percent of control at 50000 nM by qPCR analysis relative to control; design: scale not given: the % may be the effect or the level left
[23] = target: Serine/threonine-protein kinase MARK2 (Homo sapiens) (UniProt Q7KZI7); experiment: Inhibition of DNA-tagged human MARK2 assessed as percent of control at 50000 nM by qPCR analysis relative to control; design: scale not given: the % may be the effect or the level left
[24] = target: Mitogen-activated protein kinase kinase kinase 6 (Homo sapiens) (UniProt O95382); experiment: Inhibition of DNA-tagged human ASK2 assessed as percent of control at 50000 nM by qPCR analysis relative to control; design: scale not given: the % may be the effect or the level left
[25] = target: Cyclin-dependent kinase-like 3 (Homo sapiens) (UniProt Q8IVW4); experiment: Inhibition of DNA-tagged human CDKL3 assessed as percent of control at 50000 nM by qPCR analysis relative to control; design: scale not given: the % may be the effect or the level left
[26] = system: Mast/stem cell growth factor receptor Kit (Homo sapiens), P10721 [V559D,T670I]; experiment: Inhibition of DNA-tagged human KIT V559D/T670I double mutant assessed as percent of control at 50000 nM by qPCR analysis relative to control; design: scale not given: the % may be the effect or the level left
[27] = system: Serine/threonine-protein kinase B-raf (Homo sapiens), P15056 [V600E]; experiment: Inhibition of DNA-tagged human BRAF V600E mutant assessed as percent of control at 50000 nM by qPCR analysis relative to control; design: scale not given: the % may be the effect or the level left
[28] = target: TGF-beta receptor type-2 (Homo sapiens) (UniProt P37173); experiment: Inhibition of DNA-tagged human TGFBR2 assessed as percent of control at 50000 nM by qPCR analysis relative to control; design: scale not given: the % may be the effect or the level left
[29] = target: Cyclin-dependent kinase 11B (Homo sapiens) (UniProt P21127); experiment: Inhibition of DNA-tagged human CDC2L1 assessed as percent of control at 50000 nM by qPCR analysis relative to control; design: scale not given: the % may be the effect or the level left
[30] = target: Receptor-interacting serine/threonine-protein kinase 1 (Homo sapiens) (UniProt Q13546); experiment: Inhibition of DNA-tagged human RIPK1 assessed as percent of control at 50000 nM by qPCR analysis relative to control; design: scale not given: the % may be the effect or the level left

Sequence of Mitogen-activated protein kinase 14 (Homo sapiens) (Q16539 whole entry): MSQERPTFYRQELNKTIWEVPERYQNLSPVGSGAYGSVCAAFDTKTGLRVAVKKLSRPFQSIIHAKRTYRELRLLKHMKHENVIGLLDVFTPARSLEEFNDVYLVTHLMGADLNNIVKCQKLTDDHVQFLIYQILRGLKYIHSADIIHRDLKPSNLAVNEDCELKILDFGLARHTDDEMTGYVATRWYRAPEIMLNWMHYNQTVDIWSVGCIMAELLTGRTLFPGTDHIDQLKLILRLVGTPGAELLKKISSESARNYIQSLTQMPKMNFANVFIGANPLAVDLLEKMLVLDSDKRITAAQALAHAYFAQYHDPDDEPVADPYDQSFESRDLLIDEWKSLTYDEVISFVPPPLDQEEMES
Sequence of Mast/stem cell growth factor receptor Kit (Homo sapiens), P10721 [A829P] (P10721 whole entry A829P): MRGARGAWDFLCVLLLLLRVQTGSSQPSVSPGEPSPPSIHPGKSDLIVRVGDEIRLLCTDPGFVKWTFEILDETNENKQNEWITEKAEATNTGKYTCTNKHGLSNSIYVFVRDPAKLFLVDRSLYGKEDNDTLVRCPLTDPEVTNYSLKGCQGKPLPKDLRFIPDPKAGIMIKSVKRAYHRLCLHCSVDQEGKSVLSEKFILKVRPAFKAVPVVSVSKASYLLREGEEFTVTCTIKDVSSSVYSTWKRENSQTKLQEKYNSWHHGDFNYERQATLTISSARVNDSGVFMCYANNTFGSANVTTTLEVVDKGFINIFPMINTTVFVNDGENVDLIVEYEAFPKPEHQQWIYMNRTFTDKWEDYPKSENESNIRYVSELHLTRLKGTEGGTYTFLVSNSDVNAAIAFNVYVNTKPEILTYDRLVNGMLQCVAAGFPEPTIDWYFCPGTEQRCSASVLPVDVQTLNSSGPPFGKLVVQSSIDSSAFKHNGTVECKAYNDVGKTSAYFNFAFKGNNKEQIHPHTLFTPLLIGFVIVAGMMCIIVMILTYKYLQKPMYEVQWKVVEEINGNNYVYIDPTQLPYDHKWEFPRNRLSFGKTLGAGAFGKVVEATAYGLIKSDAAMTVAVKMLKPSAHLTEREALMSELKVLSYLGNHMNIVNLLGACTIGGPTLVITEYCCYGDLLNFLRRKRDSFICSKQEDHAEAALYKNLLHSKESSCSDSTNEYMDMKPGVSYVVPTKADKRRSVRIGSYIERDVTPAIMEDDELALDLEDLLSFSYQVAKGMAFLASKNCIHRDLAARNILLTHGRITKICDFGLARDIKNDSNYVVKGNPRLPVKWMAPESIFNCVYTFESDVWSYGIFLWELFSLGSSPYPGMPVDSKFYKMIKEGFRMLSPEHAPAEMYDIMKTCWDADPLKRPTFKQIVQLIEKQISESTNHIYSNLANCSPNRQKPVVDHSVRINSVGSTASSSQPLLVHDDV
Sequence of Tyrosine-protein kinase receptor Tie-1 (Homo sapiens) (P35590 whole entry): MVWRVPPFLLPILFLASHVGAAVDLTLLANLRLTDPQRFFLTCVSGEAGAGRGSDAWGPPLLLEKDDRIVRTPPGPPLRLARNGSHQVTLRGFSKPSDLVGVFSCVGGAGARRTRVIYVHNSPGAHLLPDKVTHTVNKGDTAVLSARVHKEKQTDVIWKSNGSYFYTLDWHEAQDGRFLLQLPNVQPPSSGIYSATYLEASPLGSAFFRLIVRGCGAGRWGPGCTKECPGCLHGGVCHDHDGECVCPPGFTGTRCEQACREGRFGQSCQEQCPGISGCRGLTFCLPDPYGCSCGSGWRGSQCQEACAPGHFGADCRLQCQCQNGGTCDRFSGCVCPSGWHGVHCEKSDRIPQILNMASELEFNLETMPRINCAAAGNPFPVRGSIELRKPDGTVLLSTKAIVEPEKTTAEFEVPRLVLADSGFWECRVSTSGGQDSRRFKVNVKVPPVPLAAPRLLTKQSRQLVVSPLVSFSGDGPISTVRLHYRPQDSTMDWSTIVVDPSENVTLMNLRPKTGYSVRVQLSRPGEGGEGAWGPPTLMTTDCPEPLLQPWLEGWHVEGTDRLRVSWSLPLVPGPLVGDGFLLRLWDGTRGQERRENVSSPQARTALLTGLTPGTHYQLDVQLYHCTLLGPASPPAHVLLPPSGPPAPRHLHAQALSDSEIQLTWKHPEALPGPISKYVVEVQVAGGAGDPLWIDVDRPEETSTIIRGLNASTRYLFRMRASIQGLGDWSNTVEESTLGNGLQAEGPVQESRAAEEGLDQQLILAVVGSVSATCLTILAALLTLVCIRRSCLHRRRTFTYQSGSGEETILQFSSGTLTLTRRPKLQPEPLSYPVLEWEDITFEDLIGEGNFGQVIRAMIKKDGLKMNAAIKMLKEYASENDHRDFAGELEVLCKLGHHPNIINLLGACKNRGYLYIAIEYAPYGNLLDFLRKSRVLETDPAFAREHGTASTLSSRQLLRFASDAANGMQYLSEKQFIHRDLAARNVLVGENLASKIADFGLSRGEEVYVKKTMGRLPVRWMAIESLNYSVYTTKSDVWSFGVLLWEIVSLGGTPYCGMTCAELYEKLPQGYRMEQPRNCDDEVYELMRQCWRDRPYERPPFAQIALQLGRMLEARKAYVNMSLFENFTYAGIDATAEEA
Sequence of RAC-gamma serine/threonine-protein kinase (Homo sapiens) (Q9Y243 whole entry): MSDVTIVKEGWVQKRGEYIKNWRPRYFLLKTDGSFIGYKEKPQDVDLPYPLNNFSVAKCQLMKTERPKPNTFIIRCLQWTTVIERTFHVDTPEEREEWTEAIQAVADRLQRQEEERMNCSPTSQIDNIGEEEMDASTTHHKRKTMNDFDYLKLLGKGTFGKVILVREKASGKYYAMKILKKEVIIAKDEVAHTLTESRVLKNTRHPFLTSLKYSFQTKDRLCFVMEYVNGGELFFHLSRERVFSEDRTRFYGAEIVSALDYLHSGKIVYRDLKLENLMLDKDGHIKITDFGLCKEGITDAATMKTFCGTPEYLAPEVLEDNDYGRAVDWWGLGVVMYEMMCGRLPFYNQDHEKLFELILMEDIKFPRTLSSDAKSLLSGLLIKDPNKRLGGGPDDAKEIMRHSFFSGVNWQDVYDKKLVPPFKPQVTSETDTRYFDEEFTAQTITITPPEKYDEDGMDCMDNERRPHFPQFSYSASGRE
Sequence of Peripheral plasma membrane protein CASK (Homo sapiens) (O14936 whole entry): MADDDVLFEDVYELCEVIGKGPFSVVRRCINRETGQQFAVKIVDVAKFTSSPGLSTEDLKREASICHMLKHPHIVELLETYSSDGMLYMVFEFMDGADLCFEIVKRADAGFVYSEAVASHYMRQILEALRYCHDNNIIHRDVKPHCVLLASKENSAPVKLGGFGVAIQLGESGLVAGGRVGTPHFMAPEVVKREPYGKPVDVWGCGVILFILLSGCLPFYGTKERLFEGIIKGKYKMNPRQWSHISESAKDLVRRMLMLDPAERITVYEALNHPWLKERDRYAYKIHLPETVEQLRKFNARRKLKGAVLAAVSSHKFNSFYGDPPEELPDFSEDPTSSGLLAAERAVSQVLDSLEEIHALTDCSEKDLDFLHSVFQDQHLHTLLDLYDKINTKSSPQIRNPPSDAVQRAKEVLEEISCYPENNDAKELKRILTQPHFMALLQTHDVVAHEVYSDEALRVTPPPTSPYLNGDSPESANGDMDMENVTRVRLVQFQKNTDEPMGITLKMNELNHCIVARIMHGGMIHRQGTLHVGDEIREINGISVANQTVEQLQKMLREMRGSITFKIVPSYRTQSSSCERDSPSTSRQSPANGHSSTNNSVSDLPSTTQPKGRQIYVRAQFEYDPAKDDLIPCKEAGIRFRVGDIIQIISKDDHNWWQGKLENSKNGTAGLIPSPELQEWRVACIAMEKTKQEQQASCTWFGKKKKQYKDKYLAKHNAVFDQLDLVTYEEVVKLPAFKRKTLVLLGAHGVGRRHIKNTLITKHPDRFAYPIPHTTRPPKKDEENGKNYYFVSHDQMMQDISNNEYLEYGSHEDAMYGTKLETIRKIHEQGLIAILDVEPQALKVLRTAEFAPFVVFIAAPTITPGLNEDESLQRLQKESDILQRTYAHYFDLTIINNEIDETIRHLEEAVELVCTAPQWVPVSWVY
Sequence of Serine/threonine-protein kinase MARK2 (Homo sapiens) (Q7KZI7 whole entry): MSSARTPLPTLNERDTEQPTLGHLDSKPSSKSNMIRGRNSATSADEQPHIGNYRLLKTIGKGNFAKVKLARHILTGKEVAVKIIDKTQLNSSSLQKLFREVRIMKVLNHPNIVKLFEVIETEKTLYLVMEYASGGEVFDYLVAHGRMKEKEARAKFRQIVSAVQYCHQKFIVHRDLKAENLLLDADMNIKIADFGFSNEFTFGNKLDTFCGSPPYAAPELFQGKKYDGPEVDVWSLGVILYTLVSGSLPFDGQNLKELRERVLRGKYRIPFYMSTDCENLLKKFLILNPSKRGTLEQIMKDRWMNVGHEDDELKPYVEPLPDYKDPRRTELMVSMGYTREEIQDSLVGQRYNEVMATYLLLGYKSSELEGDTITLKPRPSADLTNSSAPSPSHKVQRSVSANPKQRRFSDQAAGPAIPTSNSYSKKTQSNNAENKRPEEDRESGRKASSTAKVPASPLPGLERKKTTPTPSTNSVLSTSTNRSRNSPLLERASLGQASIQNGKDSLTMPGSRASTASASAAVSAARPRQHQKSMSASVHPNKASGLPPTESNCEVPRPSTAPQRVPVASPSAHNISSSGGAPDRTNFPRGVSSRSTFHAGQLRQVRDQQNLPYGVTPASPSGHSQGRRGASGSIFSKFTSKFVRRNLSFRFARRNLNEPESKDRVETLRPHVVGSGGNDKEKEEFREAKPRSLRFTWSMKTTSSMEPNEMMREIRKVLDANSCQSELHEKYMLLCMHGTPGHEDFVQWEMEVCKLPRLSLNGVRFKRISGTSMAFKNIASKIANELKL
Sequence of Casein kinase II subunit alpha (Homo sapiens) (P68400 whole entry, looked up): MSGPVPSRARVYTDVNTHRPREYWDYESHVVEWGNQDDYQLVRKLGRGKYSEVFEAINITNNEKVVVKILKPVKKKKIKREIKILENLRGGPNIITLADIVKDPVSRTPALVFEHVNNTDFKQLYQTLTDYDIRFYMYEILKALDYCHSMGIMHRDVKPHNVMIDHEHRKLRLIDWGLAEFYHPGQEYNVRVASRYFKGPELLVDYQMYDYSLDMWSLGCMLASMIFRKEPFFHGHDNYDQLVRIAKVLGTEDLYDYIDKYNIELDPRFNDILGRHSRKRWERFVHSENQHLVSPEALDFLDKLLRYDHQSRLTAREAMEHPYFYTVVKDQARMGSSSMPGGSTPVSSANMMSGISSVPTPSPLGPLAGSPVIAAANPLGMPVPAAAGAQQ

Compound: CN1C(=O)/C(=C2/C(=O)Nc3ccccc32)c2ccccc21
- Activity [1]: 100%
- Activity [2]: 92%
- Activity [3]: 80%
- Activity [4]: 72%
- Activity [5]: 88%
- Activity [6]: 94%
- Activity [7]: 100%
- Activity [8]: 94%
- Activity [9]: 100%
- Activity [10]: 68%
- Activity [11]: Active
- Activity [12]: 63%
- Activity [13]: 88%
- Activity [14]: 79%
- Activity [15]: 100%
- Activity [16]: 100%
- Activity [17]: 33%
- Activity [18]: 100%
- Activity [19]: 97%
- Activity [20]: 78%
- Activity [21]: 100%
- Activity [22]: 100%
- Activity [23]: 75%
- Activity [24]: 100%
- Activity [25]: 100%
- Activity [26]: 93%
- Activity [27]: 72%
- Activity [28]: 94%
- Activity [29]: 87%
- Activity [30]: 95%
